Measured values from patent publication US9376442B2, “Methylpyrrolopyrimidinecarboxamides” (Takeda GmbH, priority 2009, dated 2016).

Biological target: T1, PDE5A1 (Homo sapiens, UniProt O76074)
T1 construct: from tissue; host or cells: human platelets from fresh donor blood (10,000 x g supernatant of sonicated lysate)
Experiment: Inhibition of type 5 phosphodiesterase (PDE5) activity, modified SPA test with human platelet lysate
Format: biochemical
Conditions: 0.5 μM cGMP, read-out: PDE5A1 inhibitory values [measured as −log IC50 (mol/l)] (converted)
Outline: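 Scintillation proximity assay with [3H]cGMP tracer at 0.5 μM total cGMP, stopped after 15 min with beads containing IBMX. PDE3 and PDE2 activities suppressed with motapizone (1 μM) and a PDE2 inhibitor (10 nM). Human platelet supernatant served as the enzyme, with compound preincubated 5 min at 37° C; IC50 values from concentration-effect curves.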

IC50 | Structure (SMILES)
< 1 nM | COc1ccc(OCC2CC2)c(-c2ncnc3c(C(=O)N[C@@H]4CCN(C(=O)[C@H](C)O)C4)c(C)[nH]c23)c1 [Example F48, 4-[2-(cyclopropylmethoxy)-5-methoxyphenyl]-N-{(3R)-1-[(2S)-2-hydroxypropanoyl]pyrrolidin-3-yl}-6-methyl-5H-pyrrolo[3,2-d]pyrimidine-7-carboxamide]
< 1 nM | Cc1cc(-c2ncnc3c(C(=O)N[C@@H]4CCN(C(=O)CO)C[C@H]4O)c(C)[nH]c23)c(OCC2CC2)cc1F (relative stereo) [Example F81, 4-[2-(Cyclopropylmethoxy)-4-fluoro-5-methylphenyl]-N-[(3R*,4R*)-3-hydroxy-1-(hydroxyacetyl)piperidin-4-yl]-6-methyl-5H-pyrrolo[3,2-d]pyrimidine-7-carboxamide]
< 1 nM | COCC(=O)N1C[C@@H](O)[C@H](NC(=O)c2c(C)[nH]c3c(-c4cc(OC)c(F)cc4OCC4CC4)ncnc23)C1 (relative stereo) [Example E185, 4-[2-(Cyclopropylmethoxy)-4-fluoro-5-methoxyphenyl]-N-[(3R*,4R*)-4-hydroxy-1-(methoxyacetyl)pyrrolidin-3-yl]-6-methyl-5H-pyrrolo[3,2-d]pyrimidine-7-carboxamide]
< 1 nM | COCC(=O)N1CCC(NC(=O)c2c(C)[nH]c3c(-c4cc(C(C)=O)ccc4OCC4CC4)ncnc23)CC1 [Example E165, 4-[5-Acetyl-2-(cyclopropylmethoxy)phenyl]-N-[1-(methoxyacetyl)piperidin-4-yl]-6-methyl-5H-pyrrolo[3,2-d]pyrimidine-7-carboxamide]
< 1 nM | CCC(=O)N1CC[C@@H](NC(=O)c2c(C)[nH]c3c(-c4cc(C)c(F)cc4OCC4CC4)ncnc23)[C@H](O)C1 (relative stereo) [Example E129, 4-[2-(cyclopropylmethoxy)-4-fluoro-5-methylphenyl]-N-[(3R*,4R*)-3-hydroxy-1-propanoylpiperidin-4-yl]-6-methyl-5H-pyrrolo[3,2-d]pyrimidine-7-carboxamide]
< 1 nM | COCC(=O)N1CC[C@@H](NC(=O)c2c(C)[nH]c3c(-c4cc(F)c(OC)cc4OCC4CC4)ncnc23)[C@H](O)C1 (relative stereo) [Example E144, 4-[2-(Cyclopropylmethoxy)-5-fluoro-4-methoxyphenyl]-N-[(3R*,4R*)-3-hydroxy-1-(methoxyacetyl)piperidin-4-yl]-6-methyl-5H-pyrrolo[3,2-d]pyrimidine-7-carboxamide]
< 1 nM | CC(=O)N1CCC(NC(=O)c2c(C)[nH]c3c(-c4ccc(F)cc4OCC4CC4)ncnc23)CC1 [Example E19, N-(1-acetylpiperidin-4-yl)-4-[2-(cyclopropylmethoxy)-4-fluorophenyl]-6-methyl-5H-pyrrolo[3,2-d]pyrimidine-7-carboxamide]
< 1 nM | Cc1[nH]c2c(-c3c(OCC4CC4)ccc4c3OCO4)ncnc2c1C(=O)NC1CN(C(=O)C(C)O)CC1O (mixture of isomers) [Example F10, Diastereomeric mixture of 4-[5-(Cyclopropylmethoxy)-1,3-benzodioxol-4-yl]-N-{(3R,4R)-4-hydroxy-1-[(2S)-2-hydroxypropanoyl]pyrrolidin-3-yl}-6-methyl-5H-pyrrolo[3,2-d]pyrimidine-7-carboxamide and 4-[5-(cyclopropylmethoxy)-1,3-benzodioxol-4-yl]N-{(3S,4S)-4-hydroxy-1-[(2S)-2-hydroxypropanoyl]pyrrolidin-3-yl}-6-methyl-5H-pyrrolo[3,2-d]pyrimidine-7-carboxamide]
< 1 nM | CCC(=O)N1C[C@@H](O)[C@H](NC(=O)c2c(C)[nH]c3c(-c4cc(F)c(OC)cc4OCC4CC4)ncnc23)C1 (relative stereo) [Example E190, 4-[2-(Cyclopropylmethoxy)-5-fluoro-4-methoxyphenyl]-N-[(3R*,4R*)-4-hydroxy-1-propionylpyrrolidin-3-yl]-6-methyl-5H-pyrrolo[3,2-d]pyrimidine-7-carboxamide]
< 1 nM | CC(=O)N[C@H]1CC[C@H](NC(=O)c2c(C)[nH]c3c(-c4cc(C)c(F)cc4OCC4CC4)ncnc23)CC1 [Example E122, N-[trans-4-(Acetylamino)cyclohexyl]-4-[2-(cyclopropylmethoxy)-4-fluoro-5-methylphenyl]-6-methyl-5H-pyrrolo[3,2-d]pyrimidine-7-carboxamide]
1 to 10 nM | CCC(=O)N1CC[C@@H](NC(=O)c2c(C)[nH]c3c(-c4cc(F)ccc4OCC4CC4)ncnc23)C1 [Example E47, 4-[2-(Cyclopropylmethoxy)-5-fluorophenyl]-6-methyl-N-[(3R)-1-propanoylpyrrolidin-3-yl]-5H-pyrrolo[3,2-d]pyrimidine-7-carboxamide]
< 1 nM | COc1cc(OCC2CC2)c(-c2ncnc3c(C(=O)N[C@@H]4CCN(C(=O)[C@H](C)O)C4)c(C)[nH]c23)cc1F [Example F116, 4-[2-(Cyclopropylmethoxy)-5-fluoro-4-methoxyphenyl]-N-{(3R)-1-[(2S)-2-hydroxypropanoyl]pyrrolidin-3-yl}-6-methyl-5H-pyrrolo[3,2-d]pyrimidine-7-carboxamide]
< 1 nM | COc1ccc(-c2ncnc3c(C(=O)NC4CCN(C(=O)CO)CC4)c(C)[nH]c23)c(OCC2CC2)c1 [Example F34, 4-[2-(Cyclopropylmethoxy)-4-methoxyphenyl]-N-(1-glycoloylpiperidin-4-yl)-6-methyl-5H-pyrrolo[3,2-d]pyrimidine-7-carboxamide]
< 1 nM | CC(=O)N[C@H]1CC[C@H](NC(=O)c2c(C)[nH]c3c(-c4c(OCC5CC5)ccc5c4OCO5)ncnc23)CC1 [Example E5, N-(trans-4-acetamidocyclohexyl)-4-[5-(cyclopropylmethoxy)-1,3-benzodioxol-4-yl]-6-methyl-5H-pyrrolo[3,2-d]pyrimidine-7-carboxamide]
< 1 nM | CCC(=O)N[C@H]1CC[C@@H](NC(=O)c2c(C)[nH]c3c(-c4cc(C)c(F)cc4OCC4CC4)ncnc23)CC1 [Example E126, 4-[2-(Cyclopropylmethoxy)-4-fluoro-5-methylphenyl]-6-methyl-N-[cis-4-(propanoylamino)cyclohexyl]-5H-pyrrolo[3,2-d]pyrimidine-7-carboxamide]
< 1 nM | Cc1[nH]c2c(-c3c(OCC4CC4)ccc4c3OCO4)ncnc2c1C(=O)N[C@@H]1CCN(C(=O)[C@H](C)O)C1 [Example F8, 4-[5-(Cyclopropylmethoxy)-1,3-benzodioxol-4-yl]-N-{(3R)-1-[(2S)-2-hydroxypropanoyl]pyrrolidin-3-yl}-6-methyl-5H-pyrrolo[3,2-d]pyrimidine-7-carboxamide]
< 1 nM | CCC(=O)N[C@H]1CC[C@H](NC(=O)c2c(C)[nH]c3c(-c4c(OCC5CC5)ccc5c4OCO5)ncnc23)CC1 [Example E6, 4-[5-(Cyclopropylmethoxy)-1,3-benzodioxol-4-yl]-6-methyl-N-[trans-4-(propionylamino)cyclohexyl]-5H-pyrrolo[3,2-d]pyrimidine-7-carboxamide]
< 1 nM | COc1ccc(OCC2CC2)c(-c2ncnc3c(C(=O)N[C@@H]4CCN(C(=O)CO)C[C@H]4O)c(C)[nH]c23)c1 (relative stereo) [Example F49, 4-[2-(Cyclopropylmethoxy)-5-methoxyphenyl]-N-[(3R*,4R*)-3-hydroxy-1-(hydroxyacetyl)piperidin-4-yl]-6-methyl-5H-pyrrolo[3,2-d]pyrimidine-7-carboxamide]
< 1 nM | CCOC(=O)N[C@H]1CC[C@@H](NC(=O)c2c(C)[nH]c3c(-c4cc(F)c(OC)cc4OCC4CC4)ncnc23)CC1 [Example E141, Ethyl {cis-4-[({4-[2-(cyclopropylmethoxy)-5-fluoro-4-methoxyphenyl]-6-methyl-5H-pyrrolo[3,2-d]pyrimidin-7-yl}carbonyl)amino]cyclohexyl}carbamate]
< 1 nM | CCC(=O)N1CCC(NC(=O)c2c(C)[nH]c3c(-c4ccc(F)cc4OCC4CC4)ncnc23)CC1 [Example E20, 4-[2-(Cyclopropylmethoxy)-4-fluorophenyl]-6-methyl-N-(1-propionylpiperidin-4-yl)-5H-pyrrolo[3,2-d]pyrimidine-7-carboxamide]
1 to 10 nM | CCC(=O)N1CC[C@@H](NC(=O)c2c(C)[nH]c3c(-c4cc(F)ccc4OCC4CC4)ncnc23)[C@H](O)C1 (relative stereo) [Example E50, 4-[2-(Cyclopropylmethoxy)-5-fluorophenyl]-N-[(3R*,4R*)-3-hydroxy-1-propanoylpiperidin-4-yl]-6-methyl-5H-pyrrolo[3,2-d]pyrimidine-7-carboxamide]
< 1 nM | COCC(=O)N1CCC(NC(=O)c2c(C)[nH]c3c(-c4cc(OC)c(F)cc4OCC4CC4)nc(C)nc23)CC1 [Example E175, 4-[2-(Cyclopropylmethoxy)-4-fluoro-5-methoxyphenyl]-N-[1-(methoxyacetyl)piperidin-4-yl]-2,6-dimethyl-5H-pyrrolo[3,2-d]pyrimidine-7-carboxamide]
< 1 nM | CCOc1ccc(C(F)(F)F)cc1-c1ncnc2c(C(=O)NC3CCN(C(=O)COC)CC3)c(C)[nH]c12 [Example E101, 4-[2-Ethoxy-5-(trifluoromethyl)phenyl]-N-[1-(methoxyacetyl)piperidin-4-yl]-6-methyl-5H-pyrrolo[3,2-d]pyrimidine-7-carboxamide]
< 1 nM | COc1cc(-c2ncnc3c(C(=O)NC4CCN(C(C)=O)CC4)c(C)[nH]c23)c(OCC2CC2)cc1F [Example E102, N-(1-Acetylpiperidin-4-yl)-4-[2-(cyclopropylmethoxy)-4-fluoro-5-methoxyphenyl]-6-methyl-5H-pyrrolo[3,2-d]pyrimidine-7-carboxamide]
< 1 nM | COc1cc(OCC2CC2)c(-c2ncnc3c(C(=O)N[C@@H]4CCN(C(=O)CO)C[C@H]4O)c(C)[nH]c23)cc1F (relative stereo) [Example F89, 4-[2-(cyclopropylmethoxy)-5-fluoro-4-methoxyphenyl]-N-[(3R*,4R*)-3-hydroxy-1-(hydroxyacetyl)piperidin-4-yl]-6-methyl-5H-pyrrolo[3,2-d]pyrimidine-7-carboxamide]
